Here are results for two compounds from patent publication US5698541A, “2,4-diphosphonoglutaric acid derivatives, processes for their production and pharmaceutical agents containing these compounds” (Boehringer Mannheim GmbH, priority 1994, dated 1997).

The test system of the test is non-stimulated bone resorption. In words: Inhibition of non-stimulated bone resorption by determining the excretion of [3H]-tetracycline in urine. In kind it is in vivo. Conditions: rats, subcutaneous, 2 × 200 mg/kg (8 a.m. and 5 p.m. on sixth day of urine collection); reduced [3H]-tetracycline excretion in urine on eighth day. How it is done: Inhibition of non-stimulated bone resorption by determining the excretion of [^3 H]-tetracycline in urine:
From birth onwards rats received a twice-weekly injection of increasing amounts of a solution of 3.7×10^5 Bq/ml (10 μCi/ml) [7-^3 H]-tetracycline ([^3 H]TC); New England Nuclear, Boston, Mass.) with a specific activity of 679 mCi/mmol. The volume per injection is increased from 50 μl/week to 250 μl in the fifth week and kept at this level for a further week. The total amount of administered [^3 H]TC was 20 μCi per rat. 51-day-old rats are transferred to individual metabolic cages and received a group feeding with feed which contained 0.5% Ca and 0.35% P. This feed was produced by addition of appropriate amounts of calcium and phosphate (SODI 2134, "Klingenthalmuhle"). The animals received distilled water ad libitum during the entire duration of the experiment. Collection of 24 hour urine was begun after 61 days. The urine was collected daily at 11 o'clock; the animals also received food at this time. On the sixth day after the start of the urine collection, the animals received subcutaneous injections of the substance (at 8 a.m. and 5 p.m.). […] The ^3 H-TC in urine is determined by liquid scintillation by adding 10 ml of the scintillator Pico-Fluor 30 (Packard International, Zurich, Switzerland) to 1 ml of the urine. […]

On to `O=C(O)C(CC(CCCN1CCCC1)(C(=O)O)P(=O)(O)O)P(=O)(O)O` (centres unmarked) [Example 4, 2,4-diphosphono-2-pyrrolidinopropylglutaric acid], for which the “% rel. inhibition/dosage” value is reported as 37%.

As to `NCCCCC(CC(C(=O)O)P(=O)(O)O)(C(=O)O)P(=O)(O)O` (centres unmarked) [Example 5], the “% rel. inhibition/dosage” value turned out to be 45%.
